Measured values reported in patent publication US5473074A, “Adenosine diphosphoribose polymerase binding nitroso aromatic compounds useful as retroviral inactivating agents, anti-retroviral agents and anti-tumor agents-54” (priority 1992, dated 1995).
pIC50: −log10 of the molar value. Entries after “also recorded” stand apart in the source; their conditions may differ. Like-named read-outs stand apart in the source and are kept apart here.

Assays:
ADPRT = details: cited from earlier work
[1] = not told
cells / HIV = test: Anti-tumor / anti-HIV (biological) action, general statement
calf thymus ADPRT = calf thymus ADPRT (Bos taurus, UniProt P18493); test: ADPRT polymerase activity inhibition/inactivation (I50)
Procedure: The compounds of the subject invention were tested for their ability to inactivate the polymerase activity of adenosinediphosphoribosyl transferase (ADPRT). Assays were performed according to the method of Buki and Kun, Biochem. 27:5990-5995 (1988), using calf thymus ADPRT.
Assay conditions: ADPRT, 0.4 μg; coDNA, 4 μg; inhibitor diluted
between 0.8 and 600 μM, in 50 μl of 50 mM TrisHCl, 50 mM KCl, 5 mM
2mercaptoethanol, 0.5 mM EDTA, 0.1 mM NAD ([32Plabelled), pH 7.5.
Polymerization at 25° C. for 4 minutes.

HIV-1 = test: Anti-HIV action on stimulated human lymphoblasts, virus titer; format: cell-based; details: 30 min exposure, virus alone 5.25
Procedure: VIII. Anti-HIV action of NOBP, NOBA and NOQ on stimulated human lymphoblasts
Exposure to the two drugs was only for 30 minutes at the commencement of viral infection, and drugs were never re-added. The results given in Table III provide the ID50 of HIV titer 10 days after infection of cell cultures with HIV.

[2] = tested on: normal rhesus bone marrow stem cells; test: CFU stem cell toxicity assay, FIG. 5A
[3] = molecular target: Zn(HIV1-F1), N-terminal CCHC zinc finger of the HIV-1 NC protein (Human immunodeficiency virus type 1 lw12.3 isolate, UniProt Q70622); details: Summers, et al.; cited from earlier work
[4] = tested on: cancer cells (855-2 and HL-60 leukemia, D32, D37 and CRL 7712 glioblastoma, 186 medulla tumor, L1210 murine leukemia, MDA-468 human breast tumor); test: Functions of cancer cells in absence or presence of compounds (FIGS. 4-9); format: cell-based
Procedure: (§1) Experiments were performed in which the functions of various cancer cells (855-2 and HL-60 leukemia cells, D32, D37 and CRL 7712 glioblastoma cell lines, 186 medulla tumor cell line, L1210 murine leukemia cell line, MDA-468 human breast tumor cell line) and normal cells (neutrophil leukocytes and bone marrow or peripheral blood stream cells) were assessed in the absence or presence of the compounds.

[5] = tested on: human peripheral blood neutrophil leukocytes
[6] = tested on: human leukemia cell lines (855-2, H9, HL-60, K562); test: [3H]thymidine uptake, human leukemia cell lines (FIG. 2); format: cell-based
Procedure: FIGS. 2A-2F are composite of graphs displaying the inhibitory effects of the ADRPT ligands on (FIG. 2A) 855-2 cells (a cell line of human B-cell lineage acute lymphoblastic leukemia), (FIG. 2B) H9 cells (a cell line of human T-cell lineage acute lymphoblastic leukemia), (FIG. 2C) HL-60 cells (a cell line of human acute nonlymphoblastic leukemia) and (FIG. 2D) K562 cells (a cell line of human chronic myelogenous leukemia). These cells were cultured while under the influence of the growth factors in 10% fetal bovine serum (FCS), whereas in (FIG. 2E) and (FIG. 2F) the 855-2 cells were cultured in the presence of autocrine growth factor activity (AGF) or low molecular weight-B-cell growth factor (BCGF, a T-cell derived lymphokine), respectively.

855-2 cells [7] = test: MTT assay, cytocidal activity; format: cell-based, human; details: 10 μM, 100,000 cells/ml
Procedure: MTT (3-[4,5-[…]]-2,5-diphenyltetrazolium bromide) at 1 mg/ml was then added for 16 hours. The absorbance of the pelleted cell was then measured at 550 nm after adding DMSO to solubilze the cells.

[8] = tested on: normal cells (neutrophil leukocytes and bone marrow or peripheral blood stem cells)
Procedure: as §1

[9] = tested on: human peripheral blood neutrophil leukocytes; test: Superoxide generation by human neutrophils; details: 10 μM; 10^5 PMN + PMA (control 55.9 ± 7.7)
855-2 leukemia cells = test: 855-2 growth inhibition, comparison with vincristine (FIG. 7); format: cell-based, human
Procedure: Vincristine, a highly toxic chemotherapeutic compound, is currently used in the treatment of leukemia and other malignancies. […] Vincristine was tested in doses of 0.1, 1, 10 and 100 μM.

855-2 cells [10] = test: Colony formation (CFU) in semi-solid medium, 855-2; format: cell-based, human; details: single cells in semi-solid medium
H9 cells = test: [3H]thymidine uptake, H9 cells; format: cell-based, human; details: 10% FCS
855-2 cells [11] = test: [3H]thymidine uptake / growth, 855-2 cells; format: cell-based, human
HL-60 cells = test: Colony formation (CFU) in semi-solid medium, HL-60; format: cell-based, human; details: single cells in semi-solid medium
K562 cells = test: [3H]thymidine uptake, K562 cells; format: cell-based, human; details: 10% fetal bovine serum
[12] = tested on: normal human stem cells (PBSC); test: Colony formation (CFU-GM) of normal human stem cells (PBSC), FIG. 5B; format: cell-based; details: 0, 2, 4, 8 and 10 μM
[13] = tested on: malignant transformation / neoplasia; details: in vitro and in vivo; Tseng, et al.; cited from earlier work

Sequence of calf thymus ADPRT (P18493 whole entry): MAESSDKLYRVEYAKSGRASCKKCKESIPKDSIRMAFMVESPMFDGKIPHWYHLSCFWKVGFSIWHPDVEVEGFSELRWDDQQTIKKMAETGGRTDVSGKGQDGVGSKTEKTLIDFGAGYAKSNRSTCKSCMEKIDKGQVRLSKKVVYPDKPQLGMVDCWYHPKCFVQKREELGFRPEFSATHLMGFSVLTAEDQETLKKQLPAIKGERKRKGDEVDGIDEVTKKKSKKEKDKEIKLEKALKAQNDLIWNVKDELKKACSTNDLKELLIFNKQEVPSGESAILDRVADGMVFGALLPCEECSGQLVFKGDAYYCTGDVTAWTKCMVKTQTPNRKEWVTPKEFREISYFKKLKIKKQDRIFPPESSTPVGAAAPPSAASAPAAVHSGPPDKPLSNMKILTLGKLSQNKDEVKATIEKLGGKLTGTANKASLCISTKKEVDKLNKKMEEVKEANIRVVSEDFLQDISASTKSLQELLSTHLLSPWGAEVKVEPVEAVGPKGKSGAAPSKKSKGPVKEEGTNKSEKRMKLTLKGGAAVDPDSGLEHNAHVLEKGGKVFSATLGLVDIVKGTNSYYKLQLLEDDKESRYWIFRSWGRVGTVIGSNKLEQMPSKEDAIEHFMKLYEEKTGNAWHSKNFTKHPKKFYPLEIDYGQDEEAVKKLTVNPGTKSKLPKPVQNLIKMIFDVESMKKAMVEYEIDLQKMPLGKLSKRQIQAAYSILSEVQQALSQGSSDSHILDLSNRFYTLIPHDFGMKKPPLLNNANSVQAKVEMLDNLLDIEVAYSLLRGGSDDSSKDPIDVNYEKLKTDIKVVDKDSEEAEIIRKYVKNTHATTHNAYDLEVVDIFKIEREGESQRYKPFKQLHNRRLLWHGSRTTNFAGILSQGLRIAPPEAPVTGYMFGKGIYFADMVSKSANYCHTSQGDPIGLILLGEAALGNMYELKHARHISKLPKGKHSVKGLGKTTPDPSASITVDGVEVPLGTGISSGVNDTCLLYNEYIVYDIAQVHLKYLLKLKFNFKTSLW

In the case of 3-aminonaphthylhydrazide, the “inhibition of ADPRT polymerase activity, in words” value (ADPRT) is listed as “known to inhibit ADPRT polymerase activity”.

For `O=Nc1ccc2oc(=O)ccc2c1I` [5-I-6-NO-1,2-benzopyrone, 5-iodo-6-nitroso-1,2-benzopyrone], the “permeation, in words” value [1] was “poor permeant molecule”, the “biological action relative to 6-NO-1,2-benzopyrone” value (cells / HIV; vs 6-NO-1,2-benzopyrone) was 10 times weaker and the “ADPRT inhibition, in words” value (calf thymus ADPRT) was “relatively poor inhibitor of ADRPT”. For the same molecule, the pIC50 (calf thymus ADPRT) was 3.40.

For `Nc1ccc2oc(=O)ccc2c1` [ABP, 6-amino-1,2-benzopyrone], the “Virus Titer (log ID50), 10 days” value (HIV-1; 500 μM) is given as 4.50 log ID50, the “CFU stem cell toxicity, in words” value ([2]; 1 mM) is given as “toxic at the tested given doses” and the “ADPRT binding, in words” value (ADPRT; site that also binds to DNA, Hakam, et al.) is given as “binds specifically to ADRPT at the site that also binds to DNA”. It also gave a pIC50 (calf thymus ADPRT) of 3.43.

For `O=C(O)CN(CCN(CC(=O)O)CC(=O)O)CC(=O)O` [EDTA], the “molar excess required to remove zinc from Zn(HIV-1-F1)” value [3] is given as 10 -fold molar excess.

For `Nc1ccc2oc(=O)ccc2c1I` [IABP, 5-iodo-6-amino-1,2-benzopyrone], the “Virus Titer (log ID50), 10 days” value (HIV-1; 250 μM) is listed as 4.66 log ID50, the “CFU stem cell toxicity, in words” value ([2]; 250 μM) is listed as “toxic at the tested given doses” and the “inhibition of ADPRT polymerase activity, in words” value (ADPRT) is listed as “known ADPRT polymerase activity inhibitors”. It also gave a pIC50 (calf thymus ADPRT) of 4.39.

In the case of `O=c1ccc2cc([N+](=O)[O-])ccc2o1` [NO2 BP, 6-nitro-1,2-benzopyrone], the “Virus Titer (log ID50), 10 days” value (HIV-1; 250 μM) was 4.93 log ID50, the “activity against tumor cells, in words” value [4] was “weakly active” and the “activity against tumor cells, in words” value ([4]; listed as 6-nitro derivative) was “almost ineffective (against tumor cells)”.

In the case of `O=Nc1ccc2oc(=O)ccc2c1` [NOBP, 6-nitroso-1,2-benzopyrone], the “superoxide generation, in words” value [5] was “Only minor reductions in superoxide generation”, the “inhibition of 3H-thymidine uptake, in words” value ([6]; 10 μM, 855-2, H9, HL-60, K562 cells) was “powerfully inhibited 3H-thymidine uptake” and the “molar concentrations needed to inhibit 3H-thymidine uptake, in words” value ([6]; each of the cell lines tested) was “able to inhibit 3H-thymidine uptake in lower molar concentrations than the other compounds”. For the same molecule, the “killing of 855-2 cells (MTT), in words” value (855-2 cells [7]) was “complete killing”, the “effect on normal stem cell colony formation (FIG. 5), in words” value [8] was “minimal effect on normal cells” and the “effect on viability of normal cells, in words” value [8] was “not to affect adversely the viability of normal cells”. The “toxicity to normal cells, in words” value [8] was “not toxic to normal cells”, the “superoxide generation by human neutrophils (mean + S.D., n = 11)” value [9] was 34.1 ± 14.1 nmol O2^- /hr/10^5 cells and the “Virus Titer (log ID50), 10 days” value (HIV-1; 10 μM) was 2.01 log ID50. The “anti-tumor and anti-HIV activity, in words” value (cells / HIV) was “highly active as anti-tumor and anti-HIV molecules”, the “effectiveness after short exposure of cells” value (cells / HIV; exposure as short as 30 minutes) was “effective even after exposure of cells for a period as short as 30 minutes” and the “activity against tumor cells, in words” value [4] was “highly effective (against tumor cells)”. The “potency relative to vincristine” value (855-2 leukemia cells; vs equal concentration of vincristine) was “about 10 times more potent”, the “colony formation, 855-2, in words” value (855-2 cells [10]) was “inhibit the ability of human leukemic cells (855-2 and HL-60) to form colonies” and the “inhibition of thymidine uptake, H9” value (H9 cells; 100 μM) was “almost complete inhibition”. The inhibition at 10 µM (H9 cells; Homo sapiens, H9, 10 μM) was ~30%, the “relative inhibition of thymidine uptake, 855-2” value (855-2 cells [11]; 1 μM, 10% fetal bovine serum) was “somewhat more inhibition than NOBA” and the “inhibition of thymidine uptake, 855-2” value (855-2 cells [11]; 10 μM, 10% fetal bovine serum) was “almost complete inhibition”. For the same molecule, the “growth arrest of 855-2 cells at increasing serum concentration” value (855-2 cells [11]; 10 μM, increasing FCS) was “Growth arrest occurs irrespective of the concentration of FCS”, the “relative potency, 855-2” value (855-2 cells [11]; 10% fetal bovine serum) was “potent inhibitory effects regardless of the source of growth factor activity” and the pIC50 (calf thymus ADPRT) was 4.40. The “colony formation, HL-60, in words” value (HL-60 cells) was “inhibit the ability of human leukemic cells (855-2 and HL-60) to form colonies”, the “inhibition of cell growth (thymidine uptake), K562” value (K562 cells; 100 μM) was “almost complete inhibition” and the “relative potency, K562” value (K562 cells) was “most potent inhibitors of cell growth; also recorded: almost as potent as NOQ”. For the same molecule, the “cytotoxicity on CFU-GM of PBSC, in words” value [12] was “Toxicity was not detected”.

In the case of `NC(=O)c1ccccc1` [benzamide], the “inhibition of ADPRT polymerase activity, in words” value (ADPRT) is listed as “known to inhibit ADPRT polymerase activity”.

In the case of `O=c1ccc2ccccc2o1` [coumarin (1,2-benzopyrone), 1,2-benzopyrone], the “anti-transforming and anti-neoplastic effect, in words” value [13] is given as “anti-transforming and anti-neoplastic effect”, the “inhibition of ADPRT polymerase activity, in words” value (ADPRT) is given as “known to inhibit ADPRT polymerase activity” and the “inhibition of ADPRT polymerase activity, in words” value (ADPRT; listed as 1,2-benzopyrone (coumarin)) is given as “inhibitory ligand of adenosinediphosphoribosyl transferase (ADPRT)”.

In the case of `c1ccc2cnccc2c1` [isoquinoline], the “inhibition of ADPRT polymerase activity, in words” value (ADPRT) is given as “known to inhibit ADPRT polymerase activity”.

In the case of `O=c1c(O)c(-c2ccc(O)c(O)c2)oc2cc(O)cc(O)c12` [quercetin], the “inhibition of ADPRT polymerase activity, in words” value (ADPRT) is given as “known to inhibit ADPRT polymerase activity”.

With `CC[C@]1(O)C[C@H]2CN(CCc3c([nH]c4ccccc34)[C@@](C(=O)OC)(c3cc4c(cc3OC)N(C=O)[C@H]3[C@@](O)(C(=O)OC)[C@H](OC(C)=O)[C@]5(CC)C=CCN6CC[C@]43[C@@H]65)C2)C1` [vincristine, reference compound] the “concentration required to produce the same level of inhibition as 10 μM NOBP” value (855-2 leukemia cells; in vitro) was 100 µM.
